Laboratory results reported in ChEMBL document CHEMBL1201862, “PubChem BioAssay data set” (2004).
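Cells were grown in 96-well plates and exposed to each compound for 48 hours at five concentrations; endpoints were interpolated linearly between bracketing concentrations, or set to the highest concentration if not reached. GI50: concentration for 50% inhibition of growth.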 The source made the active and inactive calls. Cut-off read from the data, not from the text of the source: active = GI50 up to about 1.1 µM and inactive = higher. Square brackets hold non-standard residues; d marks the D form. Peptide text beside a SMILES is read from it. * marks the point of attachment. ξ: configuration not given here. Propanoyl(3-(4-MeO-Ph)) = COc1ccc(CCC(=O)*)cc1; Thr(3ξ) = CC(O)[C@H](N)C(=O)O; dNMeL = CN[C@H](CC(C)C)C(=O)O; ξLac = CC(O)C(=O)O

Columns and labels:
Test in all cases: DTP human tumour cell line panel, 48 h
K562 = test system: K562
HOP-62 = test system: HOP-62
SN12C = test system: SN12C
A498 = test system: A498
MCF7 = test system: MCF7
UO-31 = test system: UO-31
EKVX = test system: EKVX
NCI-H460 = test system: NCI-H460
OVCAR-3 = test system: OVCAR-3
UACC-62 = test system: UACC-62
SF-295 = test system: SF-295
RXF 393 = test system: RXF 393
SK-MEL-5 = test system: SK-MEL-5
A549 = test system: A549
Hs-578T = test system: Hs-578T
HCT-116 = test system: HCT-116
MDA-N = test system: MDA-N
HT-29 = test system: HT-29

Row | Compound | GI50 (K562) | GI50 (HOP-62) | GI50 (SN12C) | GI50 (A498) | GI50 (MCF7) | GI50 (UO-31) | GI50 (EKVX) | GI50 (NCI-H460) | GI50 (OVCAR-3) | GI50 (UACC-62) | GI50 (SF-295) | GI50 (RXF 393) | GI50 (SK-MEL-5) | GI50 (A549) | GI50 (Hs-578T) | GI50 (HCT-116) | GI50 (MDA-N) | GI50 (HT-29)
1 | O=[N+]([O-])c1cc(Cl)ccc1S(=O)(=O)c1cc(Cl)cc2c1NCCC2 | 24.5 µM (inactive) | 69.2 µM (inactive) | > 100 µM (inactive) | > 100 µM (inactive) | 37.8 µM (inactive) | 49.5 µM (inactive) | 85.7 µM (inactive) | 55.1 µM (inactive) | 62.7 µM (inactive) | 29.5 µM (inactive) | 36.7 µM (inactive) | 41.4 µM (inactive) | 21.3 µM (inactive) | 52 µM (inactive) | 95.1 µM (inactive) | 63.1 µM (inactive) | 39.3 µM (inactive) | 45.6 µM (inactive)
2 | O=c1[nH]c2c(C(F)(F)F)c(Cl)c(-c3ccccc3)nc2o1 | 27.2 µM (inactive) | 35.4 µM (inactive) | 10.9 µM (inactive) | 57.8 µM (inactive) | 45.6 µM (inactive) | 12.5 µM (inactive) | 14.8 µM (inactive) | 23.9 µM (inactive) | 17.3 µM (inactive) | 75.5 µM (inactive) | 13.3 µM (inactive) | 21.5 µM (inactive) | 4.83 µM (inactive) | 19.8 µM (inactive) | 55.6 µM (inactive) | 16.1 µM (inactive) | 14.8 µM (inactive) | 23.3 µM (inactive)
3 | Cc1cc(/N=C/c2ccc(F)cc2)n(-c2ccccc2)n1 | 59.3 µM (inactive) | > 100 µM (inactive) | 57.3 µM (inactive) | 42.3 µM (inactive) | 46.7 µM (inactive) | > 100 µM (inactive) | 66.7 µM (inactive) | 41.5 µM (inactive) | > 100 µM (inactive) | > 100 µM (inactive) | 57.5 µM (inactive) | 47.9 µM (inactive) | 52.5 µM (inactive) | 92 µM (inactive) | > 100 µM (inactive) | > 100 µM (inactive) | 73.3 µM (inactive) | 48.9 µM (inactive)
4 | CC(=O)NNc1nc(C)c(C(/C=C/c2ccc3c(c2)OCO3)=N/NC(=O)c2ccncc2)s1 | > 100 µM (inactive) | > 100 µM (inactive) | > 100 µM (inactive) | > 100 µM (inactive) | > 100 µM (inactive) | > 100 µM (inactive) | 62.5 µM (inactive) | > 100 µM (inactive) | > 100 µM (inactive) | > 100 µM (inactive) | > 100 µM (inactive) | > 100 µM (inactive) | > 100 µM (inactive) | > 100 µM (inactive) | > 100 µM (inactive) | > 100 µM (inactive) | > 100 µM (inactive) | > 100 µM (inactive)
5 | CCOC(=O)c1nc2ccccc2nc1Oc1ccc(C#N)cc1 | > 100 µM (inactive) | > 100 µM (inactive) | > 100 µM (inactive) | > 100 µM (inactive) | > 100 µM (inactive) | > 100 µM (inactive) | > 100 µM (inactive) | > 100 µM (inactive) | > 100 µM (inactive) | > 100 µM (inactive) | > 100 µM (inactive) | > 100 µM (inactive) | > 100 µM (inactive) | > 100 µM (inactive) | > 100 µM (inactive) | > 100 µM (inactive) | > 100 µM (inactive) | > 100 µM (inactive)
6 | CC(/C=C/C(=O)NO)=C\C(C)C(=O)c1ccc(N(C)C)cc1 (stereo not given) | 0.0325 µM (active) | 0.0391 µM (active) | 0.0605 µM (active) | 0.0841 µM (active) | < 0.01 µM (active) | 0.0498 µM (active) | 0.261 µM (active) | < 0.01 µM (active) | 0.0119 µM (active) | 0.0512 µM (active) | 0.0951 µM (active) | 0.0251 µM (active) | 0.0313 µM (active) | < 0.0122 µM (active) | < 0.01 µM (active) | < 0.01 µM (active) | 0.0287 µM (active) | < 0.01 µM (active)
7 | COC(=O)[C@@H](NC(=O)[C@@H](CC(C)C)N(C)C(=O)[C@@H]1CCCN1C(=O)C(C)O)C(C)OC(=O)CCc1ccc(OC)cc1 (stereo not given in full) (H-[ξLac]P[dNMeL][Thr(3ξ)](Propanoyl(3-(4-MeO-Ph)))-OMe) | > 100 µM (inactive) | > 100 µM (inactive) | > 100 µM (inactive) | > 100 µM (inactive) | > 100 µM (inactive) | > 100 µM (inactive) | > 100 µM (inactive) | > 100 µM (inactive) | > 100 µM (inactive) | > 100 µM (inactive) | > 100 µM (inactive) | > 100 µM (inactive) | > 100 µM (inactive) | > 100 µM (inactive) | > 100 µM (inactive) | > 100 µM (inactive) | > 100 µM (inactive) | > 100 µM (inactive)
8 | COc1nc2c(c(=O)n1C)N[C@@H]1[C@@H](O)[C@H](O)CO[C@@H]1N2 | > 100 µM (inactive) | > 100 µM (inactive) | > 100 µM (inactive) | > 100 µM (inactive) | > 100 µM (inactive) | > 100 µM (inactive) | > 100 µM (inactive) | > 100 µM (inactive) | > 100 µM (inactive) | > 100 µM (inactive) | > 100 µM (inactive) | > 100 µM (inactive) | > 100 µM (inactive) | > 100 µM (inactive) | > 100 µM (inactive) | > 100 µM (inactive) | > 100 µM (inactive) | > 100 µM (inactive)
9 | c1cc(NC2=NCCO2)c2c(c1)OCO2 | > 100 µM (inactive) | > 100 µM (inactive) | > 100 µM (inactive) | > 100 µM (inactive) | > 100 µM (inactive) | > 100 µM (inactive) | > 100 µM (inactive) | > 100 µM (inactive) | > 100 µM (inactive) | > 100 µM (inactive) | > 100 µM (inactive) | > 100 µM (inactive) | > 100 µM (inactive) | > 100 µM (inactive) | > 100 µM (inactive) | > 100 µM (inactive) | > 100 µM (inactive) | > 100 µM (inactive)
10 | O=C(/C=C/c1cc2ccccc2o1)N1CCN(c2ccccn2)CC1 | > 100 µM (inactive) | 97.9 µM (inactive) | > 100 µM (inactive) | > 100 µM (inactive) | 57.5 µM (inactive) | 40.9 µM (inactive) | 95.5 µM (inactive) | 91.6 µM (inactive) | 62.7 µM (inactive) | 86.7 µM (inactive) | > 100 µM (inactive) | > 100 µM (inactive) | > 100 µM (inactive) | > 100 µM (inactive) | > 100 µM (inactive) | 85.3 µM (inactive) | > 100 µM (inactive) | 68.7 µM (inactive)
11 | Nc1nc(Cl)cc(NCC2(O)CCC2)n1 | > 100 µM (inactive) | > 100 µM (inactive) | > 100 µM (inactive) | > 100 µM (inactive) | > 100 µM (inactive) | 56.5 µM (inactive) | > 100 µM (inactive) | > 100 µM (inactive) | > 100 µM (inactive) | > 100 µM (inactive) | > 100 µM (inactive) | > 100 µM (inactive) | > 100 µM (inactive) | > 100 µM (inactive) | > 100 µM (inactive) | > 100 µM (inactive) | > 100 µM (inactive) | > 100 µM (inactive)
12 | CN(C)CCCNCc1cccc2ccccc12 | > 100 µM (inactive) | > 100 µM (inactive) | > 100 µM (inactive) | > 100 µM (inactive) | > 100 µM (inactive) | > 100 µM (inactive) | > 100 µM (inactive) | > 100 µM (inactive) | > 100 µM (inactive) | > 100 µM (inactive) | > 100 µM (inactive) | > 100 µM (inactive) | > 100 µM (inactive) | > 100 µM (inactive) | > 100 µM (inactive) | > 100 µM (inactive) | > 100 µM (inactive) | > 100 µM (inactive)
13 | COc1cc2nc3n(c(=O)c2cc1OC)CCCCC3 | > 100 µM (inactive) | > 100 µM (inactive) | > 100 µM (inactive) | > 100 µM (inactive) | > 100 µM (inactive) | > 100 µM (inactive) | > 100 µM (inactive) | > 100 µM (inactive) | > 100 µM (inactive) | > 100 µM (inactive) | > 100 µM (inactive) | > 100 µM (inactive) | > 100 µM (inactive) | > 100 µM (inactive) | > 100 µM (inactive) | > 100 µM (inactive) | > 100 µM (inactive) | > 100 µM (inactive)
14 | NNC(=O)CC(=O)Nc1ccc(Cl)cc1 | 48.6 µM (inactive) | > 100 µM (inactive) | > 100 µM (inactive) | > 100 µM (inactive) | > 100 µM (inactive) | > 100 µM (inactive) | > 100 µM (inactive) | > 100 µM (inactive) | > 100 µM (inactive) | > 100 µM (inactive) | > 100 µM (inactive) | > 100 µM (inactive) | > 100 µM (inactive) | > 100 µM (inactive) | > 100 µM (inactive) | > 100 µM (inactive) | > 100 µM (inactive) | > 100 µM (inactive)
15 | CC(C)(CN)CN | > 100 µM (inactive) | > 100 µM (inactive) | > 100 µM (inactive) | > 100 µM (inactive) | > 100 µM (inactive) | > 100 µM (inactive) | > 100 µM (inactive) | > 100 µM (inactive) | > 100 µM (inactive) | > 100 µM (inactive) | > 100 µM (inactive) | > 100 µM (inactive) | > 100 µM (inactive) | > 100 µM (inactive) | > 100 µM (inactive) | > 100 µM (inactive) | > 100 µM (inactive) | > 100 µM (inactive)
